Measured values reported in patent US20240082409A1, “Modified peptide ligands for stable delivery of highly potent payloads to tumors: Method of making and using same” (priority 2020, published 2024).
Values joined by “and” are separate entries in the source; they are usually repeats but may differ in a detail not shown here. Identical values can stand only once. “Also recorded” adds a separate entry of the source. Numbered stars: 1 amine (or outer) side, 2 acyl side, 3 side chain; on linkers, the order of the positions; unused ones are H or OH. Bridge positions count the residues as written; N and C are the ends. Square brackets hold non-standard residues; d marks the D form. Peptide text beside a SMILES is read from it. I, II: the chains in the order shown. * marks the point of attachment. X1 = O=C([C@@H](CCCCn1nnc2c1-c1ccccc1N([*:3])Cc1ccccc1-2)N[*:1])[*:2]; Dolaproine = CO[C@@H]([C@@H]1CCCN1)[C@@H](C)C(=O)O; X3 = O=C(CCC(=O)[*:1])NCCOCCOCCOCCC(=O)[*:2]; Dil = CC[C@H](C)[C@H](NC)[C@@H](CC(=O)O)OC; PABC = O=C(OCc1ccc(N[*:1])cc1)[*:2]; X2 = C[C@@H](N*)[C@@H](O)c1ccccc1; d3Pal = N[C@H](Cc1cccnc1)C(=O)O; Cit = NC(=O)NCCC[C@H](N)C(=O)O; pGlu = O=C1CC[C@@H](C(=O)O)N1; NMeV = CN[C@H](C(=O)O)C(C)C

What was measured:
HCC1806 TNBC CDX = assay: Tumor growth of HCC1806 xenografts in female SCID mice; assay type: in vivo
Protocol: FIG. 4A depicts tumor volume in female SCID mice bearing HCC1806 TNBC CDX during treatment with saline; OTS-P22 or MMAE at a single i.v. injection of 0.5 μmol/kg on day 0 (arrow). Tumor volume values in mm^3 are presented as mean±standard error of 10 mice per group. Statistical analysis was performed using ANOVA followed by Tukey's multiple comparison test. ***<0.001, **<0.01, *<0.05 were significant.

[1] = Animal weight, hematology and normal organ histology in treated SCID mice; assay type: in vivo; conditions: for effect on animal weight: single i.v. injection 0.5 μmol/kg, SCID mice bearing HCC1806
Description: FIG. 4B depicts animal weight in female SCID mice bearing HCC1806 TNBC CDX during treatment with saline; OTS-P22 or MMAE at a single i.v. injection of 0.5 μmol/kg on day 0 (arrow). […] are presented as mean±standard error of 10 mice per group.
FIG. 5A depict hematology parameters of saline- and OTS-P22 treated SCID mice bearing HCC1806 TNBC xenografts (n=10) as described in FIG. 4A and into in accordance with the preferred embodiment of the present invention;
FIG. 5B depict representative hematoxylin-eosin staining slides of normal organs from saline- and OTS-P22 treated SCID mice bearing HCC1806 TNBC xenografts as described in FIG. 4A and into in accordance with the preferred embodiment of the present invention;

[2] = In-vitro potency of LHRH-based drug conjugates (summary statement); conditions: cell line not stated
[3] = In-vitro stability in human plasma (RP-HPLC/mass spectrometry); assay type: in vitro ADME
Protocol: (§1) FIGS. 7A, 7B, 7C and 7D depicts the in-vitro stability of OTS-P23 in human plasma at 0, 2, 8 and 24 hours incubation times respectively in accordance with a preferred embodiment of the present invention. OTS-P23 is incubated at 100 μg/100 μl in 80% plasma from human or for 0, 2, 8 or 24 hours. Solutions are then centrifuged using Amicon centrifugal devices (cut-off 10 KDa) and 20 μl of the lower molecular weight fractions are analyzed by RP-HPLC/mass spectrometry. […] A minor peak (2.26%) was detected with a molecular weight of 2240.3 Dalton (metabolite).
as §1, with “FIGS. 13A, 13B, 13C” for “FIGS. 7A, 7B, 7C”, “and 13D” for “and 7D”, “of OTS-P28” for “of OTS-P23”

HCC1806 TNBC cell line = assay: MTS proliferation (viability) assay, HCC1806; assay type: cell-based, human
Protocol: (§2) FIG. 2A depicts the viability of HCC1806 and BT-549 TNBC cell lines as well as normal 3T3 mouse fibroblasts in presence of peptide drug conjugate OTS-P22 at increasing concentrations (Log 0.165-100 nM). Cells were plated at 10,000 cells/well on 96-well plates in RPMI or DMEM medium (pH 7.4) with 10% FBS or 10% BCS and after attachment they were washed and incubated with OTS-P22 in complete medium without antibiotics for 3 hours. After 3 hours, cells were washed and then incubated in complete medium without antibiotics for an additional 93 hours. At the end of the incubation period cells were washed and cell viability was measured using MTS assay according to the manufacturer's instructions (Promega, Madison, WI). Data shown are percentage mean value and standard error of triplicate measurements. Differences between mean values were evaluated by one-way ANOVA followed by Tukey's honestly significant difference procedure. **<0.01 were highly significant.

[4] = system: normal 3T3 mouse fibroblasts; conditions: 0.165-100 nM, 3 hours exposure, then 93 hours, MTS
Protocol: as §2

[5] = system: caspase activity in HCC1806 cells; conditions: 100 nM, 48 hours
Protocol: At the end of the incubation, cells were washed three times, lyzed and proteins quantified using Bradford reagents. Apoptosis assay was performed using 100 μg proteins according to ApoTarget Caspase Colorimetric Protease Assay Sampler Kit instructions (Invitrogen, Carlsbad, CA).

CC[C@H](C)[C@@H]([C@@H](CC(=O)N1CCC[C@H]1[C@H](OC)[C@@H](C)C(=O)N[C@H](C)[C@@H](O)c1ccccc1)OC)N(C)C(=O)[C@@H](NC(=O)[C@@H](NC)C(C)C)C(C)C [MMAE, monomethyl auristatin E, reference compound] (H-[NMeV]V[Dil][Dolaproine]-X2)
effect on tumor growth (in words) (HCC1806 TNBC CDX; single i.v. injection 0.5 μmol/kg, end of 21 days study): did not show any significant tumor growth inhibition; also recorded: no significant effect | effect on animal weight [1]: Neither treatment with OTS-P22 or MMAE affected animal weight

Glp-His-DPal-Ser-Tyr-DLys[dPEG8-Val-Cit-PABC-MMAE]-Leu-Arg-Pro-DAla-NH2 [OTS-P23]
in-vitro potency (in words) [2]: higher potency at low nanomolar concentrations

Glp-His-DPal-Ser-Tyr-DCys[dPEG8-Val-Cit-PABC-MMAE]-Leu-Arg-Pro-DAla-NH2 [OTS-P28]
stability in human plasma (in words) ([3]; human plasma): highly stable | anti-proliferative activity in-vitro on HCC1806 TNBC cell line (in words) (HCC1806 TNBC cell line): low nanomolar concentrations | in-vitro potency (in words) [2]: higher potency at low nanomolar concentrations

Glp-His-Trp-DSer-Tyr-DLys[-dPEG5-Val-Cit-PABC-MMAE]-Leu-Arg-Pro-NHEt [OTS-P23b]
in-vitro potency (in words) [2]: higher potency at low nanomolar concentrations

Glp-DHis-Trp-DSer-Tyr-DLys[Glut-Val-Cit-PABC-MMAE]-Leu-Arg-Pro-DAla-NH2 [OTS-P31]
in-vitro potency (in words) [2]: higher potency at low nanomolar concentrations

Glp-His-DPal-Ser-Tyr-DCys[Val-Cit-PABC-MMAE]-Leu-Arg-Pro-DAla-NH2 [OTS-P26]
effect on viability of HCC1806 TNBC cells (in words) (HCC1806 TNBC cell line; MTS proliferation assay): dose-dependent manner | in-vitro potency (in words) [2]: higher potency at low nanomolar concentrations

CC[C@H](C)[C@@H]([C@@H](CC(=O)N1CCC[C@H]1[C@H](OC)[C@@H](C)C(=O)N[C@H](C)[C@@H](O)c1ccccc1)OC)N(C)C(=O)[C@@H](NC(=O)[C@H](C(C)C)N(C)C(=O)OCc1ccc(NC(=O)[C@H](CCCNC(N)=O)NC(=O)[C@@H](NC(=O)CCOCCOCCOCCNC(=O)CCC(=O)N2Cc3ccccc3-c3nnn(CCCC[C@@H](NC(=O)[C@H](Cc4ccc(O)cc4)NC(=O)[C@H](CO)NC(=O)[C@@H](Cc4cccnc4)NC(=O)[C@H](Cc4c[nH]cn4)NC(=O)[C@@H]4CCC(=O)N4)C(=O)N[C@@H](CC(C)C)C(=O)N[C@@H](CCCNC(=N)N)C(=O)N4CCC[C@H]4C(=O)N[C@H](C)C(N)=O)c3-c3ccccc32)C(C)C)cc1)C(C)C [OTS-P22, Glp-His-DPal-Ser-Tyr-DLys[dPEG3-Val-Cit-PABC-MMAE]-Leu-Arg-Pro-DAla-NH2] (I: [pGlu]H[d3Pal]SY[X1]LRP[dA]-NH2 / II: V[Cit][PABC][NMeV]V[Dil][Dolaproine]-X2; linker I:6-II:N via X3)
minor peak (metabolite, 2240.3 Dalton) ([3]; 80% human plasma, 8 hours incubation): 2.26% | conjugate still intact ([3]; 80% human plasma, 8 hours incubation, 100 μg/100 μl): 97.74% | remaining at 8 h, 100 μg/100 μl ([3]; 80% human plasma, 8 hours incubation, 100 μg/100 μl, read-out: conjugate still intact): 97.7% | effect on viability of 3T3 normal fibroblasts [4]: no effect | in-vitro potency (in words) [2]: higher potency at low nanomolar concentrations | increase of caspase activity as compared to saline-treated cells [5]: 1.5 fold | potency relative to AEZS-108 in term of in-vivo tumor growth inhibition of HCC1806 xenografts (HCC1806 TNBC CDX; compared with first generation conjugate AEZS-108): at least 16 times | partial response (HCC1806 TNBC CDX; single i.v. 0.5 μmol/kg, 21 days, 80.5% in 2/10 mice, 88.5% in 1/10 mice): 80.5% and 88.5% | tumor growth inhibition (HCC1806 TNBC CDX; single i.v. injection 0.5 μmol/kg (1.435 mg/kg), 21 days post-treatment, SCID mice): 100% | mice showing complete response (HCC1806 TNBC CDX; single i.v. injection 0.5 μmol/kg, 21 days post-treatment, 10 mice per group): 7/10 | effect on hematology ([1]; SCID mice bearing HCC1806 xenografts): No signifcant effect | effect on normal tissue histology ([1]; SCID mice bearing HCC1806 xenografts, hematoxylin-eosin): No signifcant effect | effect on animal weight [1]: No signifcant effect; also recorded: Neither treatment with OTS-P22 or MMAE affected animal weight
